The values that follow come from US20070254906A1 (DarPharma, Inc., priority 2004, published 2007).

Data set [1] deals with T1, D2 receptors (Rattus norvegicus, UniProt P61169).
T1 construct: other: rat brain striatal homogenates, 3H-spiperone
It is filed as binding. Particulars: rat brain striatal homogenates, 3H-spiperone; read-out: D2 Affinity (K0.5) ± SEM.

The target of data set [2] is D1 receptors (Rattus norvegicus, UniProt P18901). The data set is described as follows: Binding affinity at rat brain striatal D1 receptors (3H-SCH 23390). Particulars: read-out: D1 Affinity (K0.5) ± SEM; rat brain striatal homogenates, 3H-SCH 23390.
Data set [3] relates to D1 receptors. The description is as above. The conditions noted are these: for D1:D2 Selectivity: rat brain striatal homogenates.
The test system of data set [4] is D2 receptors. It is filed as binding, rat.
Data set [5] has as its system alveolar fluid resorption. The conditions noted are these: isolated, perfused rat lungs; cited from earlier work.
In data set [6] the test system is adenylate cyclase. The data set is described as follows: Stimulation of adenylate cyclase by dihydrexidine. The conditions noted are these: for efficacy in stimulating adenylate cyclase: compared with dopamine, rat, monkey, and human brain tissue, hydrochloride.
For another data set, the target named is D1 receptor (Homo sapiens, UniProt P21728). The data set is described as follows: Alveolar fluid resorption in transgenic mice overexpressing the D1 receptor. Particulars: mice with D1 receptor overexpressed by electroporation.
In data set [7] the test system is adenylate cyclase. The data set can be described thus: Activation of adenylate cyclase in rat brain striatum. It is filed as biochemical. Particulars: compared with dopamine.
For data set [8] the following is noted: background statement; cited from earlier work.
For a further data set, the system named is injured rat lung. The data set can be described thus: Fluid resorption in rat model of lung injury. It is filed as in vivo. Particulars: intravenous administration, listed as DHX, hydrochloride.
In data set [9] the target is 40 binding sites (other than the D1 site). The data set is described as follows: Screen at about 40 receptor binding sites. The conditions noted are these: inactive at all except D2 and alpha2.
Data set [10] has as its target alpha2 adrenergic receptors. The data set can be described thus: Binding at alpha2 adrenergic receptors (screen). Particulars: Method Example 2 text.
Data set [11] in a line: Half-life, duration of action and oral absorption. It is filed as in vivo. Particulars: for half-life: intravenous, read-out: half-life when given intravenously.
In data set [12] the test system is dopamine release and reuptake. The data set is described as follows: Dopamine release and reuptake.
The target in another data set is dopamine D1 receptor. The conditions noted are these: read-out: IC50, binding to dopamine D1 receptor; Mottola et al. (1992); cited from earlier work.
Data set [13] addresses 40 binding sites (other than the D1 site). The conditions noted are these: inactive; Mottola et al. (1992); read-out: IC50 at about 40 different receptor binding sites; cited from earlier work.
Data set [14] addresses alpha2 adrenergic receptors. The conditions noted are these: Mottola et al. (1992); cited from earlier work.
The test system of data set [15] is rabbit model of lung injury. The data set is described as follows: Fluid resorption in rabbit model of lung injury. It is filed as in vivo. The conditions noted are these: intravenous route.
The next data set relates to lung liquid clearance. Particulars: cited from earlier work.

“Also recorded” adds a separate entry of the source. Counter-ions that a name gives are not always drawn. Like-named read-outs stand apart in the source and are kept apart here.

Chain of D1 receptor (P21728 whole entry): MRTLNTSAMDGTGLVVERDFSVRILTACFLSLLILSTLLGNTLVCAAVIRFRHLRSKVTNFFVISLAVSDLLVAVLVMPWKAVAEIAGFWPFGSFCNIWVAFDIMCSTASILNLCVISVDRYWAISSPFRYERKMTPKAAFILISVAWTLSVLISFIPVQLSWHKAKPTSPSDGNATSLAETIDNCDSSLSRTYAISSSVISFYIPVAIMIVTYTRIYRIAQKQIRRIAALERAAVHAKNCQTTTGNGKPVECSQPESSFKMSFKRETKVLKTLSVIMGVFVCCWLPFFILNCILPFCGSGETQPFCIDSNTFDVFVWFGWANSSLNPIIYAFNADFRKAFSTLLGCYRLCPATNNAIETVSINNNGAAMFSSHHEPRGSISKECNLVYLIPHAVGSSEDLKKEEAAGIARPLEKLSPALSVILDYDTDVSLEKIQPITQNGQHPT
T1 sequence (P61169 whole entry): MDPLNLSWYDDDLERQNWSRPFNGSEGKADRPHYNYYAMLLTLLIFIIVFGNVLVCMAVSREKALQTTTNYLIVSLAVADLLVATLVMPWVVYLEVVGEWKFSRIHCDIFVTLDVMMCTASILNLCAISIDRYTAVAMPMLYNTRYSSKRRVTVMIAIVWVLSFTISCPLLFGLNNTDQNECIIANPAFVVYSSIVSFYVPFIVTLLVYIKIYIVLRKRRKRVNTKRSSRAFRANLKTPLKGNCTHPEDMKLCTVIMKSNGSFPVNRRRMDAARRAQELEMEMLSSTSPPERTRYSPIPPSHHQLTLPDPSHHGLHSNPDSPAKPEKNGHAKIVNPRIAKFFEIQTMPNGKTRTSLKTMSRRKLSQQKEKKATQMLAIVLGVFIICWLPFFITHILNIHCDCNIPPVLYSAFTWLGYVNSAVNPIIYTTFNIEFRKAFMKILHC
Chain of D1 receptors (Rattus norvegicus, UniProt P18901) (P18901 whole entry): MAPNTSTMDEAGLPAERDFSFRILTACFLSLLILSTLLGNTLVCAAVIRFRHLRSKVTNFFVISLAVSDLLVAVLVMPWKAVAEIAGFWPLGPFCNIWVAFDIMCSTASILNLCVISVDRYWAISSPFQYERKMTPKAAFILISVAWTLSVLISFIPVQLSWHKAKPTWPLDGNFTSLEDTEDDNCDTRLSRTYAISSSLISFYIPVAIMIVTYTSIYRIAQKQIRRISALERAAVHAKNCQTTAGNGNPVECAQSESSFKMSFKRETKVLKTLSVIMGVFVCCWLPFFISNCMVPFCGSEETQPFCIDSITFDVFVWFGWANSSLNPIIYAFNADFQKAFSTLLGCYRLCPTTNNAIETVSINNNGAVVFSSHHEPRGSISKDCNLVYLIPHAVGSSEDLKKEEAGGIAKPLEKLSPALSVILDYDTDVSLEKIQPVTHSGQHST

Turning to `Cc1ccc2c(c1)[C@H]1c3cc(O)c(O)cc3CC[C@@H]1NC2` (relative stereo) (as salt: hydrochloride) [Compound 6b, Trans-2-methyl-10,11-dihydroxy-5,6,6a,7,8,12b-hexahydrobenzo [α]phenanthridine hydrochloride], the melting point is 190 °C (dec.).

Turning to `Cl.Oc1cc2c(cc1O)[C@@H]1c3cc(Cc4ccccc4)ccc3CN[C@H]1CC2` (relative stereo) [Compound 6e, Trans-2-benzyl-10,11-dihydroxy-5,6,6a,7,8,12b-hexahydrobenzo[α]phenanthridine hydrochloride], the Ki was 185 nM on D2 receptors [1] and 290 nM at D1 receptors [2]. Further, the “D1:D2 Selectivity” value in the data set on D1 receptors [3] is reported as 0.6.

As to `Cc1ccc2c(c1)CN[C@H]1CCc3cc(O)c(O)cc3[C@H]21` (relative stereo) [Compound 6c, Trans-3-methyl-10,11-dihydroxy-5,6,6a,7,8, 12b-hexahydrobenzo[α]phenanthridine hydrochloride], in the data set with D2 receptors [4], the “D2 potency relative to dihydrexidine” value is listed as “greater D2 potency”. In the data set on D1 receptors [3], the “D1 potency and efficacy relative to dihydrexidine” value is listed as “comparable to dihydrexidine”; the “D1:D2 Selectivity” value is 6.

For `CN1CCc2cc(Cl)c(O)cc2C(c2ccccc2)C1` (centres unmarked) [SCH 23390], the “blockade of the dopamine effect on alveolar fluid resorption” value in data set [5] was “blocked”. Moreover, the “blockade of dihydrexidine stimulation of adenylate cyclase” value in the data set on adenylate cyclase [6] (D1 antagonist) is recorded as “blocked”. For the same compound, on D1 receptor, the “blockade of the increase in alveolar fluid resorption” value was “blocked”.

Take `Oc1ccc2c(c1O)Cc1cccc3c1C2CNC3` (centres unmarked) [dinapsoline, 8,9-Dihydroxy-2,3,7,11b-tetrahydro-1H-napth[1,2,3-de]isoquinoline]: the “efficacy in activating adenylate cyclase in rat brain striatum” value with adenylate cyclase [7] is “as effective as dopamine”.

For `Oc1ccc(C2CNCCc3c2cc(O)c(O)c3Cl)cc1` (centres unmarked) [fenoldopam], the half-life entry in data set [8] is “about 15 minutes”.

For `Oc1cc2c(cc1O)[C@H]1c3ccccc3CN[C@@H]1CC2` (racemic) [dihydrexidine, Trans-10,11-dihydroxy-5,6,6a,7,8,12b-hexahydrobenzo[α]phenanthridine hydrochloride], the “fluid absorption / resorption from injured lung” value in the data set on injured rat lung was “shown efficacy; also recorded: shown to induce fluid resorption”. Further, the half-maximal inhibitory concentration (IC50) in data set [9] is over 10000 nM; in data set [10], about 230 nM; on dopamine D1 receptor, about 10 nM; in data set [13], over 10000 nM; in data set [14] it was 230 nM. For the same compound, the results for the “efficacy in stimulating adenylate cyclase” value in the data set with adenylate cyclase [6] and with adenylate cyclase [6] (listed as DHX) were “full efficacy” and “as efficacious as dopamine”, respectively. The half-life in data set [11] (in vivo) is about 30 min; in data set [11] (serum), under 10 min. Besides, the “oral absorption / oral bioavailability” value in data set [11] (oral administration, listed as DHX, hydrochloride) is recorded as “relatively poor; also recorded: poorly absorbed”. In addition, the “functional half-life when given subcutaneously” value in data set [11] (subcutaneous) is given as “about 3 hr”. Further, the “releasing dopamine or blocking its reuptake” value in data set [12] was “inactive”. Further, the “fluid resorption in lung injury model” value in data set [15] was “shown to induce fluid resorption”.

Consider `Oc1ccc2c(c1O)Cc1cccc3c1C2CNC3` (centres unmarked) (as salt: hydrobromid) [dinapsoline, 8,9-Dihydroxy-2,3,7,11b-tetrahydro-1H-napth[1,2,3-de]isoquinoline], for which the melting point is 258 °C (dec.).

`CCCN1Cc2cccc3c2C(C1)c1ccc(O)c(O)c1O3` (centres unmarked) [Compound 16c, N-propyl-8,9-dihydroxy-1,2,3,11b-tetrahydrochromeno[4,3,2-de]isoquinoline]: the melting point is 259 to 264 °C (dec.).

For `Br.Oc1ccc2c(c1O)Oc1cccc3c1C2CNC3` (centres unmarked), the melting point was 298 to 302 °C (dec.).

For the compound `CCN1CCCC1CNC(=O)c1cc(S(N)(=O)=O)ccc1OC` (centres unmarked) [sulpiride], the “blockade of the dopamine effect on alveolar fluid resorption” value in data set [5] is on record as “not”.

As for `NCCc1ccc(O)c(O)c1` [dopamine], the “increase in alveolar fluid resorption” value in data set [5] is on record as 98%. Moreover, the “increase in lung liquid clearance” value is 131% in the data set on lung liquid clearance (dopamine instilled at 10-5), 47% with lung liquid clearance (dopamine instilled at 10-6) and 27% with lung liquid clearance (dopamine instilled at 10-8).

In the case of `Cc1ccc2c(c1)CN[C@H]1CCc3cc(O)c(O)cc3[C@H]21` (relative stereo) (as salt: hydrochloride) [Compound 6c, Trans-3-methyl-10,11-dihydroxy-5,6,6a,7,8, 12b-hexahydrobenzo[α]phenanthridine hydrochloride], the melting point is 190 °C (dec.).
